Data taken from patent US20260048046A1, “METHOD FOR IMPROVING GROWTH PERFORMANCE IN FEEDLOT CATTLE” (Elanco US Inc., priority 2022, published 2026).

Assays:
beef feedlot cattle = assay: 56-d study: animal mobility (NAMI mobility score); type: in vivo; details: for Percentage of steers, mobility score 1, Lairage / Percentage of steers, mobility score 2, Lairage / Percentage of steers, mobility score >2, Lairage / Percentage of steers, mobility score 1, Pen / Percentage of steers, mobility score 2, Pen / Percentage of steers, mobility score >2, Pen / Percentage of steers, mobility score 1, Loadout / Percentage of steers, mobility score 2, Loadout / Percentage of steers, mobility score >2, Loadout: final 56 d; for Percentage of steers, mobility score 1, Lairage / Percentage of steers, mobility score 2, Lairage / Percentage of steers, mobility score >2, Lairage: antemortem inspection at the packing plant; for Percentage of steers, mobility score 1, Pen / Percentage of steers, mobility score 2, Pen / Percentage of steers, mobility score >2, Pen: approx. 1 wk prior to harvest in home pens; for Percentage of steers, mobility score 1, Loadout / Percentage of steers, mobility score 2, Loadout / Percentage of steers, mobility score >2, Loadout: immediately prior to loading into trucks
Experimental: Animal mobility assessments were conducted three times prior to harvest at: 1) approximately 1 week prior to harvest while cattle were in their home pens; 2) after collection of final pen weights and immediately prior to loading into trucks for slaughter; and 3) at antemortem inspection during lairage at the packing plant. The mobility scorer used the North American Meat Institute's (NAMI) mobility scoring system (Edwards-Callaway et al., 2017) to evaluate cattle mobility.
The label claim variable of cumulative NH3 gas emissions over the treatment period normalized by final BW (with d −59 BW as a covariate) for the period and HCW (g of gas kg^−1 of BW or g of gas kg^−1 HCW) was determined by utilizing NH3 gas emissions equations developed from the LUB clinical effectiveness study (FDA-FOI, 2018) and validated using animals of similar BW as described by Brown et al. (2019). The pen was the experimental unit for each outcome. Differences were deemed significant using a two-sided test at Ptrt≤0.05, however, a less stringent significance threshold of Ptrt≤0.10 was used for abnormal health observations. Fixed effect of treatment and random effects of time replicate and block within time replicate were included in the model. Discrete variables were analyzed using a generalized linear mixed model, Proc GLIMMIX SAS version 9.4 unless there were convergence problems due to sparseness of data. A binomial distribution was assumed and a logit link used in the analysis. Contrasts were constructed between the CON group and each non-CON dosage group, and differences were deemed significant at Pdose≤0.05. If convergence problems arose due to sparseness of data, Fisher's exact test (binomial data; Proc FREQ in SAS) or Wilcoxon's rank-sum test (categorical data; Proc NARIWAY in SAS) was used to evaluate differences between the CON group and the non-CON dosage groups. In all cases except for health observations, differences were deemed significant at Ptrt≤0.05 for these primary discrete variables. Additionally, non-CON dosage groups were compared to one another using a significance level of Pdose≤0.05. A less stringent Ptrt≤0.10 level of significance was used for health observations.

beef steers = assay: Lubabegron removal period study: animal mobility at harvest; type: in vivo, cattle; details: for Mobility Score 1, number of animals / Mobility Score 2, number of animals / Mobility Score 3, number of animals / Mobility Score 4, number of animals: Lubabegron 3.5 mg/kg, in lairage at harvest
Experimental: Seven hundred English x Continental cross steers (initial BW=531±8.8 kg) were used in a randomized complete block design with seven treatments. Pen served as the experimental unit. […] Animals were managed as two-time replications with each replication containing five blocks (7 pens/block and 10 steers/pen). All ten blocks started and ended within 48 hours of each other. Cattle were weighed by pen using a 45,000-kg capacity pen scale (Model WI-130, Avery Weigh-Tronix LLC, Fairmont, MN; 3.66 m×21.34 m). All treatments were on feed for 71 d with harvest scheduled for 72 d. Because of an impending weather event, cattle were weighed to obtain a final BW one d early. Cattle were placed on their respective ration for the additional d and then shipped to the harvest facility the following morning.
657 head were transported to a harvest facility approximately 495 km from the research facility. Animals were scored for animal mobility using the North American Meat Institute (NAMI, 2015) scoring scale described by Edwards-Callaway et al., (2017) while in lairage. […] Experienced staff collected an ear tag number, plant identification (ID), and carcass sequence and applied a unique carcass ID. Data collected on the kill floor included HCW, instances of excessive trim (>approximately 9 kg), and prevalence of liver abscess (Brown et al., 1975). Other carcass measures were obtained via instrument grading.
Continuous variables were analyzed using the Mixed procedure of SAS (version 9.4; SAS Institute, Cary, NC). Block served as a random effect whereas treatment was fixed. Initial body weight was used to describe the uniformity of cattle randomized to treatment and used as a covariate when appropriate. Data were calculated with deads and removals excluded. Linear and quadratic effects of lubabegron removal were conducted as were individual comparisons for duration of removal (i.e., 0 vs 2 d; 0 vs 4 d, 0 vs 6 d; 0 vs 8 d and 0 vs 16 d). Fisher's Exact test was evaluated on mobility scores 1 and 2. No test was conducted on mobility scores of 3 or 4 because no scores were reported. Simple means and standard deviation of the tissues collected for the 5 animals were calculated.

SMILES: CC(C)(Cc1ccc(Oc2ncccc2C#N)cc1)NC[C@H](O)COc1ccccc1-c1cccs1 [LUB, 2-{4-[2-({(2S)-2-Hydroxy-3-[2-(2-thienyl)phenoxy]propyl}amino)-2-methylpropyl]phenoxy}nicotinonitrile]
- Percentage of steers, mobility score 1, Lairage (beef feedlot cattle; 1.5 mg·kg^−1 DM): 80.2%
- Percentage of steers, mobility score 2, Lairage (beef feedlot cattle; 1.5 mg·kg^−1 DM): 11.8%
- Percentage of steers, mobility score >2, Lairage (beef feedlot cattle; 1.5 mg·kg^−1 DM): 8.0%
- Percentage of steers, mobility score 1, Pen (beef feedlot cattle; 1.5 mg·kg^−1 DM): 85.0%
- Percentage of steers, mobility score 2, Pen (beef feedlot cattle; 1.5 mg·kg^−1 DM): 11.4%
- Percentage of steers, mobility score >2, Pen (beef feedlot cattle; 1.5 mg·kg^−1 DM): 3.6%
- Percentage of steers, mobility score 1, Loadout (beef feedlot cattle; 1.5 mg·kg^−1 DM): 76.6%
- Percentage of steers, mobility score 2, Loadout (beef feedlot cattle; 1.5 mg·kg^−1 DM): 21.4%
- Percentage of steers, mobility score >2, Loadout (beef feedlot cattle; 1.5 mg·kg^−1 DM): 2.0%
- Percentage of steers, mobility score 1, Lairage (beef feedlot cattle; 3.5 mg·kg^−1 DM): 81.7%
- Percentage of steers, mobility score 2, Lairage (beef feedlot cattle; 3.5 mg·kg^−1 DM): 12.1%
- Percentage of steers, mobility score >2, Lairage (beef feedlot cattle; 3.5 mg·kg^−1 DM): 6.2%
- Percentage of steers, mobility score 1, Pen (beef feedlot cattle; 3.5 mg·kg^−1 DM): 85.9%
- Percentage of steers, mobility score 2, Pen (beef feedlot cattle; 3.5 mg·kg^−1 DM): 10.4%
- Percentage of steers, mobility score >2, Pen (beef feedlot cattle; 3.5 mg·kg^−1 DM): 3.7%
- Percentage of steers, mobility score 1, Loadout (beef feedlot cattle; 3.5 mg·kg^−1 DM): 73.7%
- Percentage of steers, mobility score 2, Loadout (beef feedlot cattle; 3.5 mg·kg^−1 DM): 23.1%
- Percentage of steers, mobility score >2, Loadout (beef feedlot cattle; 3.5 mg·kg^−1 DM): 3.2%
- Percentage of steers, mobility score 1, Lairage (beef feedlot cattle; 5.5 mg·kg^−1 DM): 80.9%
- Percentage of steers, mobility score 2, Lairage (beef feedlot cattle; 5.5 mg·kg^−1 DM): 12.6%
- Percentage of steers, mobility score >2, Lairage (beef feedlot cattle; 5.5 mg·kg^−1 DM): 6.5%
- Percentage of steers, mobility score 1, Pen (beef feedlot cattle; 5.5 mg·kg^−1 DM): 86.9%
- Percentage of steers, mobility score 2, Pen (beef feedlot cattle; 5.5 mg·kg^−1 DM): 8.3%
- Percentage of steers, mobility score >2, Pen (beef feedlot cattle; 5.5 mg·kg^−1 DM): 4.8%
- Percentage of steers, mobility score 1, Loadout (beef feedlot cattle; 5.5 mg·kg^−1 DM): 71.3%
- Percentage of steers, mobility score 2, Loadout (beef feedlot cattle; 5.5 mg·kg^−1 DM): 25.0%
- Percentage of steers, mobility score >2, Loadout (beef feedlot cattle; 5.5 mg·kg^−1 DM): 3.7%
- Cattle scoring a mobility score of 1 or 2 (beef feedlot cattle; 56 d, all treatments, at all assessment times): ≥ 92%
- Animals receiving abnormal mobility scores of >2, across treatments (beef feedlot cattle; 56 d, any assessment time point prior to harvest): not different across treatments
- Percent of cattle scored 1 (mobility), differences among treatments (beef feedlot cattle; 56 d, any assessment time, Ptrt≥0.17): No differences
- Percent of cattle receiving mobility scores of 1 or 2, treatment differences (beef feedlot cattle; 56 d, at any time, Ptrt≥0.170): No treatment differences
- Animal mobility when lubabegron was fed (beef steers; 3.5 mg/kg DM vs non-treated, P<0.25): No differences
- Mobility Score 1, number of animals (beef steers; removal duration 0 d): 92 n
- Mobility Score 2, number of animals (beef steers; removal duration 0 d): 3 n
- Mobility Score 3, number of animals (beef steers; removal duration 0 d): 0 n
- Mobility Score 4, number of animals (beef steers; removal duration 0 d): 0 n
- Mobility Score 1, number of animals (beef steers; removal duration 2 d): 95 n
- Mobility Score 2, number of animals (beef steers; removal duration 2 d): 0 n
- Mobility Score 3, number of animals (beef steers; removal duration 2 d): 0 n
- Mobility Score 4, number of animals (beef steers; removal duration 2 d): 0 n
- Mobility Score 1, number of animals (beef steers; removal duration 4 d): 91 n
- Mobility Score 2, number of animals (beef steers; removal duration 4 d): 2 n
- Mobility Score 3, number of animals (beef steers; removal duration 4 d): 0 n
- Mobility Score 4, number of animals (beef steers; removal duration 4 d): 0 n
- Mobility Score 1, number of animals (beef steers; removal duration 6 d): 89 n
- Mobility Score 2, number of animals (beef steers; removal duration 6 d): 4 n
- Mobility Score 3, number of animals (beef steers; removal duration 6 d): 0 n
- Mobility Score 4, number of animals (beef steers; removal duration 6 d): 0 n
- Mobility Score 1, number of animals (beef steers; removal duration 8 d): 87 n
- Mobility Score 2, number of animals (beef steers; removal duration 8 d): 4 n
- Mobility Score 3, number of animals (beef steers; removal duration 8 d): 0 n
- Mobility Score 4, number of animals (beef steers; removal duration 8 d): 0 n
- Mobility Score 1, number of animals (beef steers; removal duration 16 d): 90 n
- Mobility Score 2, number of animals (beef steers; removal duration 16 d): 5 n
- Mobility Score 3, number of animals (beef steers; removal duration 16 d): 0 n
- Mobility Score 4, number of animals (beef steers; removal duration 16 d): 0 n
- Animal mobility with increased duration of removal (beef steers; lubabegron 3.5 mg/kg DM, removal 0 to 16 d, P<0.06): tended (P<0.06) to be reduced
